According to patent US12435058B2, “KIF18A inhibitors” (AMGEN INC., priority 2019, dated 2025):

biological target: T1, Recombinant human KIF18A (1-467 His-tagged) protein (Homo sapiens, UniProt Q8NI77); assay: KIF18A Enzyme Assay (microtubule-stimulated ATPase activity, ADP-Glo); format: biochemical; conditions: KIF18A protein 30 nM, ATP 75 μM (at Km), 30 μg/mL pig microtubules, ADP-Glo luminescence
T1 construct: Recombinant human KIF18A (1-467 His-tagged) protein; His; made in house
Source text: For compounds in Table A, the following assay conditions were employed:
KIF18A Enzyme Assay: Microtubule-stimulated ATPase activity assay is used to measure KIF18A enzyme activity after treatment with compound. Compounds were 2-fold serially diluted in DMSO (Sigma Inc) over 22-point concentration range. Recombinant human KIF18A (1-467 His-tagged) protein was expressed using a baculovirus system and purified by affinity chromatography by Amgen Inc. Concentrations of KIF18A protein, microtubules (MT), and ATP in the reaction were optimized for standardized homogenous enzyme assay using ADP-Glom Kinase/ATPase Assay Kit (Promega Inc). The assay measures ADP formed from the ATPase reaction. […] Read luminescence using EnVision microplate reader with ultra-luminescence module (Perkin Elmer Inc). Concentration-response curve-fitting and IC50 determination was performed using Genedata Screener Software (Standard 15.0.1, Genedata Inc) with a four-parameter logistic regression fit model.

T1 sequence (Q8NI77 1-467): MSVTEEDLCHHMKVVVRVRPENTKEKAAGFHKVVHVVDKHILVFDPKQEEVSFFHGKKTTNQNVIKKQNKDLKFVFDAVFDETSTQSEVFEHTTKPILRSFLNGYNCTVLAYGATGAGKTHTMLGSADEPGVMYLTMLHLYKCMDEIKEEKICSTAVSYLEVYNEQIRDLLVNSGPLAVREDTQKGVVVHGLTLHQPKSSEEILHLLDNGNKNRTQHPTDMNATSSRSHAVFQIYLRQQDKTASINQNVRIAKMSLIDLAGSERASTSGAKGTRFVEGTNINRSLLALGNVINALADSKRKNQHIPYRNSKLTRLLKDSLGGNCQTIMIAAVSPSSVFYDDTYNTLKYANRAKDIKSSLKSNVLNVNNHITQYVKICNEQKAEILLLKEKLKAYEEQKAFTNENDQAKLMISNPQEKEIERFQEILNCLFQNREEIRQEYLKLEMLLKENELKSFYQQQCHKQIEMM
T1 sequence (P02550 whole entry partner): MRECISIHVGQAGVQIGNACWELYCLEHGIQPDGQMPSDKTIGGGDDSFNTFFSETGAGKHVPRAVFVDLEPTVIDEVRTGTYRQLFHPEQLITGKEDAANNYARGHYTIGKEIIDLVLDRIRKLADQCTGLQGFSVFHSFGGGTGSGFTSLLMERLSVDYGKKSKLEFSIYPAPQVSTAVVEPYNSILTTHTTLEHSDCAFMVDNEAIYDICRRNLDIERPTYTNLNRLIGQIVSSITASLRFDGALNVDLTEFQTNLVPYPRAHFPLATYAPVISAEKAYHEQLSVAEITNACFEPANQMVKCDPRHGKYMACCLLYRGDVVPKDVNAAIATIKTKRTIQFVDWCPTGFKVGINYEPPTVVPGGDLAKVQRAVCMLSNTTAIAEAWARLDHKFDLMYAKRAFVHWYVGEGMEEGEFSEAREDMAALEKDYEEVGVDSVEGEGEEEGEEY
T1 sequence (P02554 whole entry partner): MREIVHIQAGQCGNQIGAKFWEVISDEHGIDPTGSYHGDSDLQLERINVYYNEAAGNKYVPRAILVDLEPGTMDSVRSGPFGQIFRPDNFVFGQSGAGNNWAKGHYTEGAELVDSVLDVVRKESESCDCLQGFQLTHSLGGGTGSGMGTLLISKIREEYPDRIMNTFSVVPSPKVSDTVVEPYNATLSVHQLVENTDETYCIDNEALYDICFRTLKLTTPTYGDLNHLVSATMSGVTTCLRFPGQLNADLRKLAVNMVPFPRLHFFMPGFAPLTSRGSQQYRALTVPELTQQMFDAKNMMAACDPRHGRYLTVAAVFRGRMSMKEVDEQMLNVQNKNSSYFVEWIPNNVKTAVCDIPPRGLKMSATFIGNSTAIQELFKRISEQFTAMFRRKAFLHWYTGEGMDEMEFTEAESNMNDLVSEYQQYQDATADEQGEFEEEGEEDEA

IC50 | Structure (SMILES)
0.342 µM | CC(C)(C)NS(=O)(=O)c1cccc(NC(=O)c2ncc(NC(C)(C)CO)nc2N2CCC(F)(F)CC2)c1 [Example 100-2, N-(3-(N-(tert-butyl)sulfamoyl)phenyl)-3-(4,4-difluoropiperidin-1-yl)-5-((1-hydroxy-2-methylpropan-2-yl)amino)pyrazine-2-carboxamide]
0.455 µM | CC(C)(C)NS(=O)(=O)c1cccc(NC(=O)c2ncc(NC(C)(C)CO)nc2N2CCC(C(F)(F)F)CC2)c1 [Example 100-3, N-(3-(N-(tert-butyl)sulfamoyl)phenyl)-5-((1-hydroxy-2-methylpropan-2-yl)amino)-3-(4-(trifluoromethyl)piperidin-1-yl)pyrazine-2-carboxamide]
0.177 µM | CC1CCN(c2nc(NC(C)(C)CO)cnc2C(=O)Nc2cccc(S(=O)(=O)NC(C)(C)C)c2)CC1 [Example 100-1, N-(3-(N-(tert-butyl)sulfamoyl)phenyl)-5-((1-hydroxy-2-methylpropan-2-yl)amino)-3-(4-methylpiperidin-1-yl)pyrazine-2-carboxamide]
0.356 µM | CC(C)(C)NS(=O)(=O)c1cccc(NC(=O)c2ncc([C@](C)(O)C(F)(F)F)nc2N2CCC3(CC2)CC3)c1 (single isomer, unassigned) [Example 105-2]
0.067 µM | CC(C)(CO)Nc1cnc(C(=O)Nc2cccc(S(=O)(=O)[C@H]3CCC(F)(F)C3)c2)c(N2CCC3(CC2)CC3)n1 (single isomer, unassigned) [Example 102-1]
0.406 µM | CC(C)(O)CNc1cnc(C(=O)Nc2cccc(S(=O)(=O)N3CCCCC3)c2)c(N2CCC3(CC2)CC3)n1 [Example 103-4, 5-((2-hydroxy-2-methylpropyl)amino)-N-(3-(piperidin-1-ylsulfonyl)phenyl)-3-(6-azaspiro[2.5]octan-6-yl)pyrazine-2-carboxamide]
0.931 µM | CC(C)(C)NS(=O)(=O)c1cccc(NC(=O)c2ncc(NC(C)(C)CO)nc2N2CC3(CCC3)C2)c1 [Example 100-12, N-(3-(N-(tert-butyl)sulfamoyl)phenyl)-5-((1-hydroxy-2-methylpropan-2-yl)amino)-3-(2-azaspiro[3.3]heptan-2-yl)pyrazine-2-carboxamide]
0.319 µM | CC(C)C1CCN(c2nc(NC(C)(C)CO)cnc2C(=O)Nc2cccc(S(=O)(=O)NC(C)(C)C)c2)CC1 [Example 100-6, N-(3-(N-(tert-butyl)sulfamoyl)phenyl)-5-((1-hydroxy-2-methylpropan-2-yl)amino)-3-(4-isopropylpiperidin-1-yl)pyrazine-2-carboxamide]
0.168 µM | CC(C)(C)NS(=O)(=O)c1cccc(NC(=O)c2ncc(NC(C)(C)CO)nc2-c2ccc(C(F)(F)F)cc2)c1 [Example 104-2, N-(3-(N-(tert-butyl)sulfamoyl)phenyl)-5-((1-hydroxy-2-methylpropan-2-yl)amino)-3-(4-(trifluoromethyl)phenyl)pyrazine-2-carboxamide]
0.129 µM | CC(C)(C)NS(=O)(=O)c1cccc(NC(=O)c2ncc(NC(C)(C)CO)nc2N2CCC3(CCCC3)CC2)c1 [Example 100-17, N-(3-(N-(tert-butyl)sulfamoyl)phenyl)-5-((1-hydroxy-2-methylpropan-2-yl)amino)-3-(8-azaspiro[4.5]decan-8-yl)pyrazine-2-carboxamide]
0.077 µM | CC(C)(C)NS(=O)(=O)c1cccc(NC(=O)c2ncc(NC(C)(C)CO)nc2N2CCC3(CCC3)CC2)c1 [Example 100-15, N-(3-(N-(tert-butyl)sulfamoyl)phenyl)-5-((1-hydroxy-2-methylpropan-2-yl)amino)-3-(7-azaspiro[3.5]nonan-7-yl)pyrazine-2-carboxamide]
0.103 µM | CC(C)(C)NS(=O)(=O)c1cccc(NC(=O)c2ncc(NC(C)(CO)CO)nc2N2CCC3(CC2)CC3)c1 [Example 106, N-(3-(N-(tert-butyl)sulfamoyl)phenyl)-5-((1,3-dihydroxy-2-methylpropan-2-yl)amino)-3-(6-azaspiro[2.5]octan-6-yl)pyrazine-2-carboxamide]
0.141 µM | CC(C)c1ccc(-c2nc(NC(C)(C)CO)cnc2C(=O)Nc2cccc(S(=O)(=O)NC(C)(C)C)c2)cc1 [Example 104-4, N-(3-(N-(tert-butyl)sulfamoyl)phenyl)-5-((1-hydroxy-2-methylpropan-2-yl)amino)-3-(4-isopropylphenyl)pyrazine-2-carboxamide]
0.108 µM | CC(C)(CO)Nc1cnc(C(=O)Nc2cccc(S(=O)(=O)C(C)(C)C(F)(F)F)c2)c(N2CCC3(CC2)CC3)n1 [Example 101-1, 5-((1-hydroxy-2-methylpropan-2-yl)amino)-3-(6-azaspiro[2.5]octan-6-yl)-N-(3-((1,1,1-trifluoro-2-methylpropan-2-yl)sulfonyl)phenyl)pyrazine-2-carboxamide]
0.418 µM | CC(C)(C)NS(=O)(=O)c1cccc(NC(=O)c2ncc(NC(C)(C)CO)nc2-c2ccc(F)cc2)c1 [Example 104-1, N-(3-(N-(tert-butyl)sulfamoyl)phenyl)-3-(4-fluorophenyl)-5-((1-hydroxy-2-methylpropan-2-yl)amino)pyrazine-2-carboxamide]
0.139 µM | CC(C)(C)NS(=O)(=O)c1cccc(NC(=O)c2ncc(NC3(CO)CC3)nc2N2CCC3(CC2)CC3)c1 [Example 103-3, N-(3-(N-(tert-butyl)sulfamoyl)phenyl)-5-((1-(hydroxymethyl)cyclopropyl)amino)-3-(6-azaspiro[2.5]octan-6-yl)pyrazine-2-carboxamide]
0.231 µM | Cc1cc(NC(=O)c2ncc(NC(C)(C)CO)nc2N2CCC3(CC2)CC3)cc(S(=O)(=O)NC(C)(C)C)c1 [Example 101, N-(3-(N-(tert-Butyl)sulfamoyl)-5-methylphenyl)-5-((1-hydroxy-2-methylpropan-2-yl)amino)-3-(6-azaspiro[2.5]octan-6-yl)pyrazine-2-carboxamide]
0.135 µM | CC(C)(C)NS(=O)(=O)c1cccc(NC(=O)c2ncc(NC(C)(C)CO)nc2-c2ccc(Cl)cc2)c1 [Example 104, N-(3-(N-(tert-butyl)sulfamoyl)phenyl)-3-(4-chlorophenyl)-5-((1-hydroxy-2-methylpropan-2-yl)amino)pyrazine-2-carboxamide]
0.204 µM | CC(C)(CO)Nc1cnc(C(=O)Nc2cccc(S(=O)(=O)C3(C)CCC3)c2)c(N2CCC3(CC2)CC3)n1 [Example 101-3, 5-((1-hydroxy-2-methylpropan-2-yl)amino)-N-(3-((1-methylcyclobutyl)sulfonyl)phenyl)-3-(6-azaspiro[2.5]octan-6-yl)pyrazine-2-carboxamide]
0.135 µM | CC(C)(CO)Nc1cnc(C(=O)Nc2cccc(S(=O)(=O)N3CCCCC3)c2)c(N2CCC3(CC2)CC3)n1 [Example 103-1, 5-((1-hydroxy-2-methylpropan-2-yl)amino)-N-(3-(piperidin-1-ylsulfonyl)phenyl)-3-(6-azaspiro[2.5]octan-6-yl)pyrazine-2-carboxamide]
0.146 µM | CCc1ccc(-c2nc(NC(C)(C)CO)cnc2C(=O)Nc2cccc(S(=O)(=O)NC(C)(C)C)c2)cc1 [Example 104-3, N-(3-(N-(tert-butyl)sulfamoyl)phenyl)-3-(4-ethylphenyl)-5-((1-hydroxy-2-methylpropan-2-yl)amino)pyrazine-2-carboxamide]
0.133 µM | CCC1CCN(c2nc(NC(C)(C)CO)cnc2C(=O)Nc2cccc(S(=O)(=O)NC(C)(C)C)c2)CC1 [Example 100-4, N-(3-(N-(tert-butyl)sulfamoyl)phenyl)-3-(4-ethylpiperidin-1-yl)-5-((1-hydroxy-2-methylpropan-2-yl)amino)pyrazine-2-carboxamide]
0.163 µM | CCC(C)C1CCN(c2nc(NC(C)(C)CO)cnc2C(=O)Nc2cccc(S(=O)(=O)NC(C)(C)C)c2)CC1 (stereo not shown) [Example 100-8, 3-(4-(sec-butyl)piperidin-1-yl)-N-(3-(N-(tert-butyl)sulfamoyl)phenyl)-5-((1-hydroxy-2-methylpropan-2-yl)amino)pyrazine-2-carboxamide]
0.143 µM | O=C(Nc1cccc(S(=O)(=O)C2CCCC2)c1)c1ncc(NC2(CO)CC2)nc1N1CCC2(CC1)CC2 [Example 103-2, N-(3-(cyclopentylsulfonyl)phenyl)-5-((1-(hydroxymethyl)cyclopropyl)amino)-3-(6-azaspiro[2.5]octan-6-yl)pyrazine-2-carboxamide]
0.768 µM | CC(C)(CO)Nc1cnc(C(=O)Nc2cccc(N3CCOCC3)c2)c(N2CCC3(CC2)CC3)n1 [Example 101-7, 5-((1-hydroxy-2-methylpropan-2-yl)amino)-N-(3-morpholinophenyl)-3-(6-azaspiro[2.5]octan-6-yl)pyrazine-2-carboxamide]
0.788 µM | CC(C)(C)NS(=O)(=O)c1cccc(NC(=O)c2ncc(NC(C)(C)CO)nc2N2CCC(C(C)(C)C)CC2)c1 [Example 100-7, 3-(4-(tert-butyl)piperidin-1-yl)-N-(3-(N-(tert-butyl)sulfamoyl)phenyl)-5-((1-hydroxy-2-methylpropan-2-yl)amino)pyrazine-2-carboxamide]
0.527 µM | CC(C)(C)NS(=O)(=O)c1cccc(NC(=O)c2ncc(NC(C)(C)CO)nc2N2CCC3(CC2)CC3)c1F [Example 101-5, N-(3-(N-(tert-butyl)sulfamoyl)-2-fluorophenyl)-5-((1-hydroxy-2-methylpropan-2-yl)amino)-3-(6-azaspiro[2.5]octan-6-yl)pyrazine-2-carboxamide]
1.38 µM | CC(C)(C)NS(=O)(=O)c1cccc(NC(=O)c2ncc(NC(C)(C)CO)nc2N2CCC3(CCOCC3)CC2)c1 [Example 100-14, N-(3-(N-(tert-butyl)sulfamoyl)phenyl)-5-((1-hydroxy-2-methylpropan-2-yl)amino)-3-(3-oxa-9-azaspiro[5.5]undecan-9-yl)pyrazine-2-carboxamide]
